We go through 24 molecules from patent US11998539B2, “Substituted aminoquinolones as DGKalpha inhibitors for immune activation” (Bayer Aktiengesellschaft, priority 2019, dated 2024).

The target of the assay is DGKα (Homo sapiens (Human), UniProt P23743). As to the kind of experiment: Human DGKα kinase activity inhibition assay (ADP-Glo). In kind it is biochemical. Conditions: recombinant full-length human DGKα, 55 μM ATP, 7 μM 1,2-dioleoyl-sn-glycerol, read-out: IC50 values of examples in in vitro human DGKa kinase activity inhibition assays. In outline: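 Activity was measured as ADP production, detected by luciferase luminescence after removal of unused ATP. The enzyme was baculovirus-expressed full-length human DGKα with a C-terminal FLAG tag. The substrate was 1,2-dioleoyl-sn-glycerol in detergent micelles, and compounds came from 100× DMSO solutions.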
DGKα, sequence (P23743 other isoform, or with tags, fused parts or gaps): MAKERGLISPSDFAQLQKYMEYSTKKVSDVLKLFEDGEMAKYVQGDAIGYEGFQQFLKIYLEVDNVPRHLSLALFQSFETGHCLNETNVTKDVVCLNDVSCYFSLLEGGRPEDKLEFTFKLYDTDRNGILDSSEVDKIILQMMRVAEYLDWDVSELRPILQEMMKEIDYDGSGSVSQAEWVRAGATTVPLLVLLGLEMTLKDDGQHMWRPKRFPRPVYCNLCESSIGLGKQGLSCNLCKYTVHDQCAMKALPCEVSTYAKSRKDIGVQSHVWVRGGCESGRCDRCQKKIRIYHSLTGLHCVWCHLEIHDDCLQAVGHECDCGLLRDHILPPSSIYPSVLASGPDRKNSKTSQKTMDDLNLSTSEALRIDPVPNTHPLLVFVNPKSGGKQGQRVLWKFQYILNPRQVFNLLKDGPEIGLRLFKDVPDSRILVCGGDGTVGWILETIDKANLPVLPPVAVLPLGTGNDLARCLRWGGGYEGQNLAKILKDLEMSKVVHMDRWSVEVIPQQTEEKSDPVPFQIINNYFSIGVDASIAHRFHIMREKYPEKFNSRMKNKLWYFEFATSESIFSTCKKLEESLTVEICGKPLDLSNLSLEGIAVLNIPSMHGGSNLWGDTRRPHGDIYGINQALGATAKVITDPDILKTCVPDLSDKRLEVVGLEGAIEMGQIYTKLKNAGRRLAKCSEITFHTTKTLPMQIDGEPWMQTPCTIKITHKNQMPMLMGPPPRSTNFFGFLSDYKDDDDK
(ADP-Glo first removes unused ATP, then detects ADP through luciferase.)
A word on the IC50: it is the concentration needed to halve the response being measured. As for `Cc1ccc2oc(C3(C)CCN(c4c(C#N)c(=O)n(C)c5cc(C)ccc45)CC3)nc2c1` [Example 220, 1,7-dimethyl-4-[4-methyl-4-(5-methyl-1,3-benzoxazol-2-yl)piperidin-1-yl]-2-oxo-1,2-dihydroquinoline-3-carbonitrile], the half-maximal inhibitory concentration (IC50) was 1.7 nM.

On to `Cc1ccc2oc(C3CCN(c4c(C(N)=O)c(=O)n(C)c5cc(N(C)CC#N)ccc45)CC3)nc2c1` [Example 500, 7-[(cyanomethyl)(methyl)amino]-1-methyl-4-[4-(5-methyl-1,3-benzoxazol-2-yl)piperidin-1-yl]-2-oxo-1,2-dihydroquinoline-3-carboxamide], for which the half-inhibitory concentration (IC50) worked out at 0.7 nM.

For the molecule `Cn1c(=O)c(C#N)c(N2CCC(c3cccc4ncsc34)CC2)c2ccccc21` [Example 75, 4-[4-(1,3-benzothiazol-7-yl)piperidin-1-yl]-1-methyl-2-oxo-1,2-dihydroquinoline-3-carbonitrile], the IC50 was found to be 49 nM.

As for `Cn1c(=O)c(C#N)c(N2CCC(c3ccc(OC(F)(F)F)cc3)CC2)c2ccccc21` [Example 43, 1-methyl-2-oxo-4-{4-[4-(trifluoromethoxy)phenyl]piperidin-1-yl}-1,2-dihydroquinoline-3-carbonitrile], the IC50 was 11 nM.

`COc1ccc(C2CCN(c3c(C#N)c(=O)n(C)c4cc(C#N)ccc34)CC2)cc1` [Example 93, 4-[4-(4-methoxyphenyl)piperidin-1-yl]-1-methyl-2-oxo-1,2-dihydroquinoline-3,7-dicarbonitrile]: the IC50 worked out at 11 nM.

With `Cc1ccc2c(N3CCC(C)(c4nc5ccccc5o4)CC3)c(C(N)=O)c(=O)n(C)c2c1` [Example 311, 4-[4-(1,3-benzoxazol-2-yl)-4-methylpiperidin-1-yl]-1,7-dimethyl-2-oxo-1,2-dihydroquinoline-3-carboxamide], the 50% inhibitory concentration (IC50) was determined as 1.2 nM.

As for `Cn1c(=O)c(C#N)c(N2CCC[C@H](c3ccccc3)CC2)c2cccc(F)c21` [Example 328, 8-fluoro-1-methyl-2-oxo-4-[(4S)-4-phenylazepan-1-yl]-1,2-dihydroquinoline-3-carbonitrile], the IC50 worked out at 144 nM.

Consider `COc1ccc(C2CCN(c3c(C#N)c(=O)n(C)c4ccccc34)CC2)cn1` [Example 142, 4-[4-(6-methoxypyridin-3-yl)piperidin-1-yl]-1-methyl-2-oxo-1,2-dihydroquinoline-3-carbonitrile], for which the IC50 was 58 nM.

Consider `Cn1c(=O)c(C#N)c(N2CCC(c3nnc(-c4cccc(C(F)(F)F)c4)o3)CC2)c2cc(Br)ccc21` [Example 435, 6-bromo-1-methyl-2-oxo-4-(4-{5-[3-(trifluoromethyl)phenyl]-1,3,4-oxadiazol-2-yl}piperidin-1-yl)-1,2-dihydroquinoline-3-carbonitrile], for which the IC50 was found to be 4.3 nM.

With `Cn1c(=O)c(C(N)=O)c(N2CCC(c3nc4ccccc4o3)CC2)c2ccc(C(F)(F)F)cc21` [Example 308, 4-[4-(1,3-benzoxazol-2-yl)piperidin-1-yl]-1-methyl-2-oxo-7-(trifluoromethyl)-1,2-dihydroquinoline-3-carboxamide], the IC50 came to 6.4 nM.

For the molecule `Cc1ccc2oc(C3CCN(c4c(C(N)=O)c(=O)n(C)c5ccc(C)cc45)CC3)nc2c1` [Example 194, 1,6-dimethyl-4-[4-(5-methyl-1,3-benzoxazol-2-yl)piperidin-1-yl]-2-oxo-1,2-dihydroquinoline-3-carboxamide], the IC50 came to 2.2 nM.

With `COCc1ccc2nc(C3(C)CCN(c4c(C(N)=O)c(=O)n(C)c5ccccc45)CC3)oc2c1` [Example 491, 4-{4-[6-(methoxymethyl)-1,3-benzoxazol-2-yl]-4-methylpiperidin-1-yl}-1-methyl-2-oxo-1,2-dihydroquinoline-3-carboxamide], the half-maximal inhibitory concentration (IC50) amounted to 9.1 nM.

With `COc1ccc2oc(C3(F)CCN(c4c(C#N)c(=O)n(C)c5ccccc45)CC3)nc2c1` [Example 393, 4-[4-fluoro-4-(5-methoxy-1,3-benzoxazol-2-yl)piperidin-1-yl]-1-methyl-2-oxo-1,2-dihydroquinoline-3-carbonitrile], the IC50 worked out at 106 nM.

Turning to `Cc1ccc2oc(C3CCN(c4c(C(N)=O)c(=O)n(C)c5c(Cl)cccc45)CC3)nc2c1` [Example 319, 8-chloro-1-methyl-4-[4-(5-methyl-1,3-benzoxazol-2-yl)piperidin-1-yl]-2-oxo-1,2-dihydroquinoline-3-carboxamide], the half-inhibitory concentration (IC50) came to 74 nM.

Regarding `Cn1c(=O)c(C#N)c(N2CCC(c3cccc4ccoc34)CC2)c2ccccc21` [Example 73], the IC50 turned out to be 33 nM.

Regarding `COC1(c2cc3ccccc3s2)CCN(c2c(C#N)c(=O)n(C)c3ccccc23)CC1` [Example 341, 4-[4-(1-benzothiophen-2-yl)-4-methoxypiperidin-1-yl]-1-methyl-2-oxo-1,2-dihydroquinoline-3-carbonitrile], the concentration for half-maximal inhibition (IC50) stood at 3.3 nM.

Turning to `Cc1ccc2c(c1)c(N1CCC(c3nc4cc(C(C)C)ccc4o3)CC1)c(C#N)c(=O)n2C` [Example 186, 1,6-dimethyl-2-oxo-4-{4-[5-(propan-2-yl)-1,3-benzoxazol-2-yl]piperidin-1-yl}-1,2-dihydroquinoline-3-carbonitrile], the concentration for half-maximal inhibition (IC50) stood at 9.1 nM.

With `Cn1c(=O)c(C#N)c(N2CCC(c3cccc4cnccc34)CC2)c2ccccc21` [Example 78, 4-[4-(isoquinolin-5-yl)piperidin-1-yl]-1-methyl-2-oxo-1,2-dihydroquinoline-3-carbonitrile], the IC50 is 104 nM.

For the molecule `CN(C)c1ccc(C2CCN(c3c(C#N)c(=O)n(C)c4ccccc34)CC2)cc1` [Example 46, 4-{4-[4-(dimethylamino)phenyl]piperidin-1-yl}-1-methyl-2-oxo-1,2-dihydroquinoline-3-carbonitrile], the half-inhibitory concentration (IC50) is 2.5 nM.

Consider `CC(C)c1ccc2oc(C3CCN(c4c(C#N)c(=O)n(C)c5ccccc45)CC3)nc2c1` [Example 8, 1-methyl-2-oxo-4-{4-[5-(propan-2-yl)-1,3-benzoxazol-2-yl]piperidin-1-yl}-1,2-dihydroquinoline-3-carbonitrile], for which the IC50 was found to be 3.2 nM.

Take `Cn1c(=O)c(C#N)c(N2CCC(c3nnc(-c4ccccc4)o3)CC2)c2cc(Br)ccc21` [Example 441, 6-bromo-1-methyl-2-oxo-4-[4-(5-phenyl-1,3,4-oxadiazol-2-yl)piperidin-1-yl]-1,2-dihydroquinoline-3-carbonitrile]: the IC50 came to 11 nM.

As for `Cn1c(C2CCN(c3c(C#N)c(=O)n(C)c4ccccc34)CC2)nc2ccccc21` [Example 147, 1-methyl-4-[4-(1-methyl-1H-benzimidazol-2-yl)piperidin-1-yl]-2-oxo-1,2-dihydroquinoline-3-carbonitrile], the IC50 came to 358 nM.

For `COc1ccc2c(c1)c(N1CCC(C)(c3nc4ccc(C)cc4o3)CC1)c(C#N)c(=O)n2C` [Example 191, 6-methoxy-1-methyl-4-[4-methyl-4-(6-methyl-1,3-benzoxazol-2-yl)piperidin-1-yl]-2-oxo-1,2-dihydroquinoline-3-carbonitrile], the concentration for half-maximal inhibition (IC50) was 7 nM.

`Cn1c(=O)c(C#N)c(N2CCC(c3nc4cc(F)ccc4s3)CC2)c2ccccc21` [Example 13, 4-[4-(5-fluoro-1,3-benzothiazol-2-yl)piperidin-1-yl]-1-methyl-2-oxo-1,2-dihydroquinoline-3-carbonitrile]: the 50% inhibitory concentration (IC50) worked out at 5.1 nM.
